Calls of active or inactive are those of the source. No cut-off for these calls is given here.
Legend:
Mus musculus [1] = test: Inhibition of human recombinant MMP12-induced ear-edema in C57BL/6 mouse assessed as decrease in ear edema at 3 mg/kg, po bid administered 2 hrs post challenge; type: functional; conditions: C57BL/6, 2 h
[2] = target: Macrophage metalloelastase (Rattus norvegicus, UniProt Q63341); test: Inhibition of rat MMP12
[3] = Volume of distribution at steady state in C57BL/6 mouse at 2 mg/kg, iv; type: ADME, organism-based; set-up: dose 2 mg/kg, route intravenous; conditions: in vivo, read-out: Vdss
Neutrophil collagenase = Neutrophil collagenase (Homo sapiens, UniProt P22894); test: Inhibition of human MMP8
Neutrophil collagenase, sequence (P22894 whole entry): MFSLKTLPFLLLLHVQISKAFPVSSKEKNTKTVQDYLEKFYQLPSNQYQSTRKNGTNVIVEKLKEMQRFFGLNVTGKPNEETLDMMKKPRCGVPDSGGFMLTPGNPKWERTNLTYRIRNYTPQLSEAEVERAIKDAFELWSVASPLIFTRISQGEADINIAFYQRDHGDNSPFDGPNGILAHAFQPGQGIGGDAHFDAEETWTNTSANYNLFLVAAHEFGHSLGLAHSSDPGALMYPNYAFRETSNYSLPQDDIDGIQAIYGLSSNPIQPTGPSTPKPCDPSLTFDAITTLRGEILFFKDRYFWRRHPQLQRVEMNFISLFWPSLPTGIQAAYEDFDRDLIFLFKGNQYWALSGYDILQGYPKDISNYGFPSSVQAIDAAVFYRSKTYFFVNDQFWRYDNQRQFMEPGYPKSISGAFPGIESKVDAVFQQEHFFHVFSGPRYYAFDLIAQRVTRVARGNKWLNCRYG

Mus musculus [4] = test: Inhibition of human recombinant MMP12-induced ear-edema in C57BL/6 mouse assessed as decrease in ear edema at 10 mg/kg, po bid administered 2 hrs post challenge; type: functional; conditions: C57BL/6, 2 h
Collagenase 3 = Collagenase 3 (Homo sapiens, UniProt P45452); test: Inhibition of human recombinant MMP13
Ovis aries [5] = test: Inhibition of EAR phase of bronchoconstrictive in Ascaris suum challenged sheep asthma model at 10 mg/kg, po twice the day prior to allergen challenge and third dose 1 hr prior to allergen challenge; type: functional, organism-based; set-up: dose 10 mg/kg; conditions: Lung
[6] = Oral bioavailability in C57BL/6 mouse at 10 mg/kg; type: ADME, organism-based; conditions: in vivo
Cytochrome P450 2D6 = Cytochrome P450 2D6 (Homo sapiens, UniProt P10635); test: Inhibition of CYP2D6; type: ADME
[7] = target: Disintegrin and metalloproteinase domain-containing protein 17 (Homo sapiens, UniProt P78536); test: Inhibition of human TACE
[8] = Clearance in C57BL/6 mouse at 2 mg/kg, iv; type: ADME, organism-based; set-up: dose 2 mg/kg, route intravenous; conditions: in vivo
Mus musculus [9] = test: Inhibition of human recombinant MMP12-induced ear-edema in C57BL/6 mouse assessed as decrease in ear edema at 30 mg/kg, po bid administered 2 hrs post challenge; type: functional; conditions: C57BL/6, 2 h
Interstitial collagenase = Interstitial collagenase (Homo sapiens, UniProt P03956); test: Inhibition of human MMP1
in vitro [10] = conditions: rat, liver microsomes
[11] = target: Matrix metalloproteinase-14 (Homo sapiens, UniProt P50281); test: Inhibition of human MMP14
Stromelysin-1 = Stromelysin-1 (Homo sapiens, UniProt P08254); test: Inhibition of human MMP3
[12] = Cmax in C57BL/6 mouse at 10 mg/kg, po; type: ADME, organism-based; set-up: dose 10 mg/kg, route oral; conditions: in vivo
[13] = target: 72 kDa type IV collagenase (Homo sapiens, UniProt P08253); test: Inhibition of human MMP2
72 kDa type IV collagenase, sequence (P08253 whole entry): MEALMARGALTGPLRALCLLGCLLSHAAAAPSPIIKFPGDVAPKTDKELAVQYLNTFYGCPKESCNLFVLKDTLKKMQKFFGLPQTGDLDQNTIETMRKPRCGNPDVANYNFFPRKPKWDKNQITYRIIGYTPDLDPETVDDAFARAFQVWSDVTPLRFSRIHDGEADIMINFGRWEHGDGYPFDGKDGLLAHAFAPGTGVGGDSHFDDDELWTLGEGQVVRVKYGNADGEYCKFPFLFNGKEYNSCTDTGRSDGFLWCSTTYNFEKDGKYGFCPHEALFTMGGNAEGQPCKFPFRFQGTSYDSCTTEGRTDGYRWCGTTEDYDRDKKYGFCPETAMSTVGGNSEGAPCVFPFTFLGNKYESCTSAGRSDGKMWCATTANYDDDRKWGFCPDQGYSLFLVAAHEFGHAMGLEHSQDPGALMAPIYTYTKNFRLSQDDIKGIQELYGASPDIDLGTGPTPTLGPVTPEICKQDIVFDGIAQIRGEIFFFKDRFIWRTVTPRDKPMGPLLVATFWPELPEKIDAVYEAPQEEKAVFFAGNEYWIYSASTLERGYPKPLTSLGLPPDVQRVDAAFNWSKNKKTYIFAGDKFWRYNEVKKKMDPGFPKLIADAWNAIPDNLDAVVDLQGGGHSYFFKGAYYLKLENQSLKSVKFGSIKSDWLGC

[14] = target: A disintegrin and metalloproteinase with thrombospondin motifs 5 (Homo sapiens, UniProt Q9UNA0); test: Inhibition of human Aggrecanase 2
A disintegrin and metalloproteinase with thrombospondin motifs 5, sequence (Q9UNA0 whole entry): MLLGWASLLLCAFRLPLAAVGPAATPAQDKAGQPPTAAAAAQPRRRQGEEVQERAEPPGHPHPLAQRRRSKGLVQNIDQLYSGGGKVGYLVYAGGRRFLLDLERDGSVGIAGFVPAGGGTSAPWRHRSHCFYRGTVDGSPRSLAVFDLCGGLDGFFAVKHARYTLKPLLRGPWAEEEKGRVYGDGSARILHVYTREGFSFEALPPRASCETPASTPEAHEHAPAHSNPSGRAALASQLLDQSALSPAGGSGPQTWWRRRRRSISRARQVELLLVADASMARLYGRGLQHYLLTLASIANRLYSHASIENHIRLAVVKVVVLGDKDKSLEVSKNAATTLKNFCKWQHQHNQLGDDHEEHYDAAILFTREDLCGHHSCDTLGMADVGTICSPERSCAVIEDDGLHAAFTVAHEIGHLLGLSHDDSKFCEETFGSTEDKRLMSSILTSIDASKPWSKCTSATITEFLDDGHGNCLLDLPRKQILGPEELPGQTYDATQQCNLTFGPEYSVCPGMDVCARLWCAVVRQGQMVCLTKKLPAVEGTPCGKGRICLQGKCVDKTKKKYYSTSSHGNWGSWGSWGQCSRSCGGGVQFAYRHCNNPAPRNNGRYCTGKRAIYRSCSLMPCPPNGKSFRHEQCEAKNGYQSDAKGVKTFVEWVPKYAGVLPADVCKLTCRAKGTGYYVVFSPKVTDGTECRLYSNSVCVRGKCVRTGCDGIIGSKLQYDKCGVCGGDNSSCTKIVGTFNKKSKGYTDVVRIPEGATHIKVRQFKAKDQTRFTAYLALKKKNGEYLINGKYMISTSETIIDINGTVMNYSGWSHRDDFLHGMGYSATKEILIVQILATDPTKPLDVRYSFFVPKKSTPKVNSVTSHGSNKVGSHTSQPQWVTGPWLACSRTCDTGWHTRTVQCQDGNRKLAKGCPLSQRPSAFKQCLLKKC

[15] = Inhibition of sheep MMP12; set-up: species or system Ovis aries
[16] = target: Macrophage metalloelastase (Mus musculus, UniProt P34960); test: Inhibition of mouse MMP12
Cytochrome P450 2C9 = Cytochrome P450 2C9 (Homo sapiens, UniProt P11712); test: Inhibition of CYP2C9; type: ADME
[17] = target: Matrix metalloproteinase-9 (Homo sapiens, UniProt P14780); test: Inhibition of human MMP9
[18] = Half life in C57BL/6 mouse at 10 mg/kg, po; type: ADME, organism-based; set-up: dose 10 mg/kg, route oral; conditions: in vivo
[19] = Metabolic stability in C57BL/6 mouse liver microsome assessed as half life; type: ADME; conditions: liver microsomes
Ovis aries [20] = test: Inhibition of carbachol-induced airway hyper-responsiveness in Ascaris suum challenged sheep asthma model at 10 mg/kg, po; type: functional, organism-based; set-up: dose 10 mg/kg
[21] = target: A disintegrin and metalloproteinase with thrombospondin motifs 4 (Homo sapiens, UniProt O75173); test: Inhibition of human Aggrecanase 1
A disintegrin and metalloproteinase with thrombospondin motifs 4, sequence (O75173 whole entry): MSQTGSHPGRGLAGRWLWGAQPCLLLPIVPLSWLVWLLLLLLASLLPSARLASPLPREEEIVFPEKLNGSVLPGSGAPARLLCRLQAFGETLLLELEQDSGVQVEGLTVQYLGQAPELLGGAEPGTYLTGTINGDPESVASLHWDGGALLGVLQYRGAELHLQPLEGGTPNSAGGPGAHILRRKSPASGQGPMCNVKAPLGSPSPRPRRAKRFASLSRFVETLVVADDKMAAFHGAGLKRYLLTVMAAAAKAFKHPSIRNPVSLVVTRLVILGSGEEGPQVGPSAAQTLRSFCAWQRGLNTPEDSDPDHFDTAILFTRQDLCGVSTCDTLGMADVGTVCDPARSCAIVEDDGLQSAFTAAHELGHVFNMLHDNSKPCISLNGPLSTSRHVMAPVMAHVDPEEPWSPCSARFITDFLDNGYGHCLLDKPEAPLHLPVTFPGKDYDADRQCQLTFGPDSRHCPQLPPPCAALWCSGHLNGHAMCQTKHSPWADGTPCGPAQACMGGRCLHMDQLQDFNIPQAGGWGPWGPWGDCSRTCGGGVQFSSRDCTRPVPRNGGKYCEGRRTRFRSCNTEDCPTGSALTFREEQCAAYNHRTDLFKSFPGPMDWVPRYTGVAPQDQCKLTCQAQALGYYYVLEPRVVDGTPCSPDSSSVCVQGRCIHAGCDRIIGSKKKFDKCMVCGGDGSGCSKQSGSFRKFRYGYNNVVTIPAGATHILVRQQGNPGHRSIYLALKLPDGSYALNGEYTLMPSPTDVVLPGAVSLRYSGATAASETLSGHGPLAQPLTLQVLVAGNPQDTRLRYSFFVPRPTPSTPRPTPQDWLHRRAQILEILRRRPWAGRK

Cytochrome P450 3A4 = Cytochrome P450 3A4 (Homo sapiens, UniProt P08684); test: Inhibition of CYP3A4; type: ADME
Cytochrome P450 3A4, sequence (P08684 whole entry): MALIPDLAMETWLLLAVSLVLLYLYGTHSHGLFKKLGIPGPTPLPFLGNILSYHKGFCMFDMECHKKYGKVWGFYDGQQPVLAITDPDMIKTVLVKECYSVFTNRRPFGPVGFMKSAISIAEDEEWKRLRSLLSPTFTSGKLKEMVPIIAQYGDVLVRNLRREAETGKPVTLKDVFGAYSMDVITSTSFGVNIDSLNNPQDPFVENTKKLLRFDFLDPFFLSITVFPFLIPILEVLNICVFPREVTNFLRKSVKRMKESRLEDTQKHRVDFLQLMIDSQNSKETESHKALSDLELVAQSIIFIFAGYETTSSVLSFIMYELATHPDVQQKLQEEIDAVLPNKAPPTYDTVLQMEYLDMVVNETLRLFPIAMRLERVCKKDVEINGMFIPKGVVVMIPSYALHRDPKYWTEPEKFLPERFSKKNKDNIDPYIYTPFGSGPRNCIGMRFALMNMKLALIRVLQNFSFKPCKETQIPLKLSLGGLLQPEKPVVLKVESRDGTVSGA

[22] = target: Voltage-gated inwardly rectifying potassium channel KCNH2 (Homo sapiens, UniProt Q12809); test: Inhibition of human ERG at 10 uM by ion works assay
Voltage-gated inwardly rectifying potassium channel KCNH2, sequence (Q12809 whole entry): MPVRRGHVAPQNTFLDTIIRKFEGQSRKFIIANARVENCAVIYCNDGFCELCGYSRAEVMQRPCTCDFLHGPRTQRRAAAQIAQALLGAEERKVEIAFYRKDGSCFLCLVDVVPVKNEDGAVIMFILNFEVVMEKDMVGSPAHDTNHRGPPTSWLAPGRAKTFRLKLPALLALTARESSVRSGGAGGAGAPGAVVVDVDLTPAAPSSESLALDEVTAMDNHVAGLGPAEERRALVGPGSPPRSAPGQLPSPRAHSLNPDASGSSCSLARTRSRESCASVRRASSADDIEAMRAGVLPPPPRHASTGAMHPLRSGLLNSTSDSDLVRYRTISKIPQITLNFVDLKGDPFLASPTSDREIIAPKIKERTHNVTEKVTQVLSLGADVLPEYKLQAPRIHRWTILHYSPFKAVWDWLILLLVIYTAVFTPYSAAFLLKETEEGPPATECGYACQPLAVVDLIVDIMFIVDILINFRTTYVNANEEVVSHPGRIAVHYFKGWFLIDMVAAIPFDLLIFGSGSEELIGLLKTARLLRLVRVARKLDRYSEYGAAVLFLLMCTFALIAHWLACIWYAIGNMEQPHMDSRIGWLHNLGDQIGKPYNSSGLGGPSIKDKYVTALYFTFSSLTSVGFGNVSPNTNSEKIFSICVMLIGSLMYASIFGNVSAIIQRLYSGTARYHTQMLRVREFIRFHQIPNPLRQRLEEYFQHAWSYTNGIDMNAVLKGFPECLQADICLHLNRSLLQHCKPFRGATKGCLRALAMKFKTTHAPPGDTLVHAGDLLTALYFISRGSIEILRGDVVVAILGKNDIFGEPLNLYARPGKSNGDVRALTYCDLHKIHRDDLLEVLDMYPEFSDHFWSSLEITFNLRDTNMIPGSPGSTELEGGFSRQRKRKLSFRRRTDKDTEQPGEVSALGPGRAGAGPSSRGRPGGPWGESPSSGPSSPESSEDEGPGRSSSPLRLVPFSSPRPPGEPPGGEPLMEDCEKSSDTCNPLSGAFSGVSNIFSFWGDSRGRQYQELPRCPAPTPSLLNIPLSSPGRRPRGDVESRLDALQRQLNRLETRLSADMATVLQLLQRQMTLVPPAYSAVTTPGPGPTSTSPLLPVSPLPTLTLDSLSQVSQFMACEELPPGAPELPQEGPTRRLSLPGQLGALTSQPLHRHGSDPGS

Matrilysin = Matrilysin (Homo sapiens, UniProt P09237); test: Inhibition of human MMP7
Matrilysin, sequence (P09237 whole entry): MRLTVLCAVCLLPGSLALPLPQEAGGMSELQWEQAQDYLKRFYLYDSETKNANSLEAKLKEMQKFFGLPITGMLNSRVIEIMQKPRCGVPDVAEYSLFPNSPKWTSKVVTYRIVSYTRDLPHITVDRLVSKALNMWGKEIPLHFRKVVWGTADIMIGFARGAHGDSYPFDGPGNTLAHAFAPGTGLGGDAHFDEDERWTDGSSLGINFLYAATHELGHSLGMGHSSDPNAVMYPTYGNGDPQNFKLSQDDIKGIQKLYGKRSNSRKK

in vitro [23] = conditions: human, liver microsomes

With CC(C)[C@H](NS(=O)(=O)c1ccc2c(c1)oc1ccc(N3CCOC3=O)cc12)C(=O)O the inhibition in vivo at 3 mg/kg (Mus musculus [1]) was 25.2%, the IC50 [2] was 72 nM and the Vd [3] was 0.8 L/kg. For the same molecule, the IC50 (Neutrophil collagenase) was 37 nM, the inhibition in vivo at 10 mg/kg (Mus musculus [4]) was 35.1% and the IC50 (Collagenase 3) was 106 nM. For the same molecule, the inhibition (Ovis aries [5]) was “Active”, the bioavailability [6] was 17% and the “inhibition (INH)” value (Cytochrome P450 2D6) was “Not Active”. It also gave an IC50 [7] of 40000 nM, a clearance [8] of 18 mL/min/kg and an inhibition in vivo at 30 mg/kg (Mus musculus [9]) of 40.3%. For the same molecule, the IC50 (Interstitial collagenase) was 5460 nM, the half-life (in vitro [10]) was over 30 min and the IC50 [11] was 2250 nM. It also gave an IC50 (Stromelysin-1) of 300 nM, a Cmax [12] of 456 ng/mL and an IC50 [13] of 66 nM. It also gave an IC50 [14] of 22600 nM, an IC50 [15] of 2 nM and an IC50 [16] of 27 nM. The “inhibition (INH)” value (Cytochrome P450 2C9) was “Not Active”, the IC50 [17] was 318 nM and the half-life [18] was 186 min. The half-life [19] was over 30 min, the inhibition (Ovis aries [20]) was “Active” and the IC50 [21] was 18000 nM. The “inhibition (INH)” value (Cytochrome P450 3A4) was “Not Active”, the “inhibition (INH)” value [22] was “Not Active” and the IC50 (Matrilysin) was 7830 nM. The half-life (in vitro [23]) was over 30 min.
